Experimental data reported in publication PMC8734228 (Cancer discovery, 2021).

Columns and labels:
FLC PDX cells = experiment: Validation screen on cells dissociated from FLC PDX; type: cell-based, human; settings: for Effect on FLC PDX cells in vitro (dose response, normalized percent survival): 10nM-10μM, FLC1-6; for Therapeutic window for FLC over PHH: FLC PDX cells compared with PHH; for Efficacy ranking in the screen: ranked by average −log10EC50 for FLC1-5 minus −log10EC50 for PHH
[1] = tested on: primary human hepatocytes (PHH); experiment: Validation counter-screen on primary human hepatocytes; settings: 72 h
[2] = tested on: cells dissociated directly from patient tumors (FLC.T6-T11); experiment: Direct from patient in vitro screening; type: cell-based, human; settings: 10μM-10nM, 72h, Cell Titer Glo
[3] = tested on: cells dissociated from PDX FLC1 and FLC5; experiment: Primary high throughput screen, 1μM, 72 h; type: cell-based, human; settings: pass = survival <60%

Compound	Result in primary screen (normalized percent survival) [3]	further results
CC1(C)C=C(CN2C/C(=C\c3ccc(F)cc3)C(=O)/C(=C/c3ccc(F)cc3)C2)C(C)(C)N1O [HO3867]	–	Effect on FLC PDX cells in vitro (dose response, normalized percent survival) (FLC PDX cells; 72 h): no effect
CCc1cnn2c(NCc3ccc[n+]([O-])c3)cc(N3CCCC[C@H]3CCO)nc12 [dinaciclib]	–	Effect on PHH (dose response, normalized percent survival) ([1]; up to 10 μM): toxic; Sensitivity of cells tested directly from patients [2]: some sensitivity
CNC(=O)c1cccc(-c2ccc3c(N4CCOC[C@@H]4C)nc(N4CCOC[C@@H]4C)nc3n2)c1 [AZD2014]	–	Therapeutic window for FLC over PHH (FLC PDX cells): no therapeutic window
O=C(NOCC1CC1)c1ccc(F)c(F)c1Nc1ccc(I)cc1Cl [PD184352]	None	–
CC(=O)c1cc([N+](=O)[O-])c(Sc2cccc(Cl)c2Cl)s1 [P5091]	–	Efficacy ranking in the screen (FLC PDX cells): 38
N.N.[Cl][Pt][Cl] [cisplatin]	no to minimal activity	–
O=C(NC[C@H](O)CO)c1ccncc1Nc1ccc(I)cc1F [pimasertib]	None	–
CCC[C@H](NC(=O)/C(C#N)=C/c1cccc(Br)n1)c1ccccc1 [degrasyn]	did not see any effect	–
C=C1C[C@@H]2[C@H](CC[C@]3(C)C(=O)CC[C@@H]23)[C@@]2(C)C=CC(=O)C=C12 [exemestane]	did not pass our primary screen	–
CNC(=O)c1cc(Oc2ccc(NC(=O)Nc3ccc(Cl)c(C(F)(F)F)c3)c(F)c2)ccn1 [regorafenib]	–	Therapeutic window for FLC over PHH (FLC PDX cells): no therapeutic window
CNC(=O)c1cc(Oc2ccc(NC(=O)Nc3ccc(Cl)c(C(F)(F)F)c3)cc2)ccn1 [Sorafenib]	–	Therapeutic window for FLC over PHH (FLC PDX cells): no therapeutic window
COc1ccc(S(=O)(=O)Nc2cc(-c3c(O)ccc4ccccc34)c(O)c3ccccc23)cc1 [C188-9]	–	Effect on FLC PDX cells in vitro (dose response, normalized percent survival) (FLC PDX cells; 72 h): no effect
CC(C)(C#N)c1cc(Cn2cncn2)cc(C(C)(C)C#N)c1 [anastrozole]	did not pass our primary screen	–
CC(=O)O/N=C1\C(=O)N(Cc2cc(Cl)ccc2Cl)c2ccc(Cl)cc21 [LDN-57444]	did not see any effect	–
COc1cc([C@@H]2c3cc4c(cc3[C@@H](O[C@@H]3O[C@@H]5CO[C@@H](C)O[C@H]5[C@H](O)[C@H]3O)[C@H]3COC(=O)[C@H]23)OCO4)cc(OC)c1O [etoposide]	no to minimal activity	–
COc1cccc(-c2cc(=O)c3ccccc3o2)c1N [PD98059]	None	–
O=P1(NCCCl)OCCCN1CCCl (stereo not drawn) [ifosfamide]	no to minimal activity	–
CC(C)C[C@H](NC(=O)CNC(=O)c1cc(Cl)ccc1Cl)B1OC(=O)C(CC(=O)O)(CC(=O)O)O1 [MLN9708]	did not see any effect	–
O=C1[O][Pt]2([NH][C@@H]3CCCC[C@H]3[NH]2)[O]C1=O [oxaliplatin]	no to minimal activity	–
O=c1[nH]cc(F)c(=O)[nH]1 [fluorouracil]	no to minimal activity	–
CN(C)Cc1cccc(N/C(=C2\C(=O)Nc3cc(C(=O)N(C)C)ccc32)c2ccccc2)c1 [BIX02189]	None	–
COc1cc(Nc2ncc3c(n2)-c2ccc(Cl)cc2C(c2c(F)cccc2OC)=NC3)ccc1C(=O)O [alisertib]	–	Effect on FLC PDX cells in vitro (dose response, normalized percent survival) (FLC PDX cells; 72 h): no effect
COc1ccc(C[C@H](NC(=O)[C@H](C)NC(=O)CN2CCOCC2)C(=O)N[C@@H](Cc2ccccc2)C(=O)C2(C)CO2)cc1 (stereo in doubt) [ONX-0914]	did not see any effect	–
COc1ccc(-c2nc(N3CCOCC3)c3sc(CN(C)c4ncc(C(=O)NO)cn4)cc3n2)cn1 [fimepinostat]	–	Effect on FLC PDX cells in vitro (dose response, normalized percent survival) (FLC PDX cells; 72 h): affected FLC1,3,4; Efficacy ranking in the screen (FLC PDX cells): 22
O=C(NOC[C@H](O)CO)c1ccc(F)c(F)c1Nc1ccc(I)cc1F [mirdametinib]	None	–
CC(C)C[C@H](NC(=O)CNC(=O)c1cc(Cl)ccc1Cl)B(O)O [ixazomib]	did not see any effect	–
Nc1ccn([C@@H]2O[C@H](CO)[C@@H](O)C2(F)F)c(=O)n1 [gemcitabine]	no to minimal activity	–

Compound	Result in primary screen (normalized percent survival) [3]	further results
N#Cc1ccc(C2CCCc3cncn32)cc1 (stereo not drawn) [fadrozole]	did not pass our primary screen	–
COc1cccc2cc(-c3nc([C@H]4CC[C@H](C(=O)O)CC4)n4ncnc(N)c34)[nH]c12 [OSI-027]	–	Therapeutic window for FLC over PHH (FLC PDX cells): no therapeutic window
CC1(C)CCC(c2ccc(Cl)cc2)=C(CN2CCN(c3ccc(C(=O)NS(=O)(=O)c4ccc(N[C@H](CCN5CCOCC5)CSc5ccccc5)c(S(=O)(=O)C(F)(F)F)c4)cc3)CC2)C1 [navitoclax]	–	Efficacy ranking in the screen (FLC PDX cells): fifth; Efficacy ranking in the screen (FLC PDX cells; listed as Navitoclax): 5
C#Cc1cccc(Nc2ncnc3cc(OCCOC)c(OCCOC)cc23)c1 [Erlotinib]	–	Effect on FLC PDX cells in vitro (dose response, normalized percent survival) (FLC PDX cells; 72 h): no effect
Cc1c(CN2CCN(C(=O)[C@H](C)O)CC2)sc2c(N3CCOCC3)nc(-c3cnc(N)nc3)nc12 [GDC0980]	–	Therapeutic window for FLC over PHH (FLC PDX cells): no therapeutic window
N#C/C(=C(/N)Sc1ccc(N)cc1)c1ccccc1C(F)(F)F [SL-327]	None	–
N#Cc1ccc(C(c2ccc(C#N)cc2)n2cncn2)cc1 [letrozole]	did not pass our primary screen	–
CC(C)C[C@H](NC(=O)[C@H](Cc1ccccc1)NC(=O)c1cnccn1)B(O)O [bortezomib]	did not see any effect	–
CNC(=O)Nc1ccc(-c2nc(N3CC4CCC(C3)O4)c3cnn(C4CCC5(CC4)OCCO5)c3n2)cc1 [WYE-125132]	–	Therapeutic window for FLC over PHH (FLC PDX cells): no therapeutic window
Cc1cc(C(=O)NOCCO)c(Nc2ccc(I)cc2F)n(C)c1=O [AZD8330]	None	–
COc1cc(C[C@H]2C(=O)OC[C@@H]2Cc2ccc(OC)c(OC)c2)ccc1O [arctigenin]	None	–
Cn1cnc2c(F)c(Nc3ccc(Br)cc3Cl)c(C(=O)NOCCO)cc21 [selumetinib]	None	–
Cc1cc(I)ccc1Nc1c(C(=O)NOCC2CC2)cc(F)c(F)c1F [PD198306]	None	–
C[C@]12CCC(=O)C(O)=C1CC[C@@H]1[C@@H]2CC[C@]2(C)C(=O)CC[C@@H]12 [formestane]	did not pass our primary screen	–
Cn1cnc2c(F)c(Nc3ccc(Br)cc3F)c(C(=O)NOCCO)cc21 [binimetinib]	None	–
CN(C)Cc1cccc(N/C(=C2\C(=O)Nc3cc(C(N)=O)ccc32)c2ccccc2)c1 [BIX02188]	None	–
CC(C)C[C@H](NC(=O)[C@@H](NC(=O)c1cccc(-c2ccccc2)n1)[C@@H](C)O)B(O)O [delanzomib]	did not see any effect	–
Cn1c(=O)c(F)c(Nc2ccc(I)cc2F)c2c(=O)n(C[C@@H](O)CO)cnc21 [TAK-733]	None	–
N.N.O=C([O-])C1(C(=O)[O-])CCC1.[Pt+2] [carboplatin]	no to minimal activity	–
O=C(c1ccc(F)c(F)c1Nc1ccc(I)cc1F)N1CC(O)([C@@H]2CCCCN2)C1 [cobimetinib]	None	–
N#CC(=C(/N)Sc1ccccc1N)/C(C#N)=C(/N)Sc1ccccc1N [U0126]	None	–
Cc1cc(OCc2nnc(SC3CCCC3)n2-c2cccnc2)ccc1-c1ccc(S(C)(=O)=O)cc1 [NMS873]	–	Efficacy ranking in the screen (FLC PDX cells): 72
CCc1c2c(nc3ccc(OC(=O)N4CCC(N5CCCCC5)CC4)cc13)-c1cc3c(c(=O)n1C2)COC(=O)[C@]3(O)CC [irinotecan]	–	Effect on FLC PDX cells in vitro (dose response, normalized percent survival) (FLC PDX cells; 72 h): no effect
COc1ccc(-c2ccc3ncc4c(c3c2)n(-c2ccc(N3CCNCC3)c(C(F)(F)F)c2)c(=O)n4C)cn1 [NVP-BGT226]	–	Effect on FLC PDX cells in vitro (dose response, normalized percent survival) (FLC PDX cells; 72 h): potency against all FLC PDX
CC(C)(C)OC(=O)N[C@H]1CCCCC/C=C\[C@@H]2C[C@@]2(C(=O)NS(=O)(=O)C2CC2)NC(=O)[C@@H]2C[C@@H](OC(=O)N3Cc4cccc(F)c4C3)CN2C1=O [danoprevir]	did not see any effect	–
Clc1ccc(N/N=C(\c2ccccc2)c2ccccn2)nc1 [JIB-04]	–	EC50 ([1]; read-out: EC50 PHH): > 10 µM; Effect on FLC PDX cells in vitro (dose response, normalized percent survival) (FLC PDX cells; 72 h): effective against all PDX lines; Efficacy ranking in the screen (FLC PDX cells): second; EC50 (FLC PDX cells; read-out: EC50 against FLC PDX in vitro, across all FLC PDX lines, 72 h): 20 to 200 nM
CN(NC(=O)CC(=O)NN(C)C(=S)c1ccccc1)C(=S)c1ccccc1 [Elesclomol]	–	Efficacy ranking in the screen (FLC PDX cells): sixth
